Laboratory results taken from publication PMC11462627, “SAL0114: a novel deuterated dextromethorphan-bupropion combination with improved antidepressant efficacy and safety profile” (Frontiers in Pharmacology, 2024).

Columns and labels:
[1] = Pharmacokinetics in beagle dog after oral administration; format: in vivo; settings: deDM, 14 mg/kg, mean, n=3
Excerpt: Results expressed as mean, n=3 per group

Sprague-Dawley rats = test: Reserpine-induced hypothermia in rats; format: in vivo; settings: oral, 30 min after treatment
Method: A reserpine-induced hypothermia test was performed according to the method described by Rojas-Corrales et al. ([Rojas-Corrales et al., 2004]; [Dhamija et al., 2017]), with some modifications. 80 male Sprague-Dawley rats were administered an intraperitoneal injection of reserpine (4 mg/kg). 18 h after the injection, rectal temperatures were measured using a rectal probe connected to a thermometer (MC-347, Omron Healthcare, Dalian, China). Rats with body temperatures not exceeding 34.5°C were considered successfully modeled. […] An additional group of ten rats not treated with reserpine served as the normal control. After the group assignment, the second phase of compound administration was initiated. The normal and model control groups received oral saline (10 mL/kg), whereas the other groups received their respective compounds orally at the specified doses, all in an equivalent volume (10 mL/kg). Rectal temperatures were measured 30 min after treatment to assess the effect of compounds in each group on the reserpine-induced hypothermia model. All experimental procedures were conducted in strict accordance with guidelines approved by the Institutional Animal Care and Use Committee of Shenzhen Salubris Pharmaceuticals Co., Ltd. A P value of less than 0.05 was considered statistically significant for comparisons between groups.

[2] = Pharmacokinetic study in C57BL/6 mice; format: in vivo; settings: plasma DM or deDM, C57BL/6 mice, oral, 20 mg/kg, mean ± SD
Excerpt: The assay was built in a way similar to that previously published by [Beconi et al. (2011)] with some modifications. A total of 36 male C57BL/6 mice, weighing between 20 and 22 g, were randomly divided into four groups of nine mice each. […] Mice in each group were numbered 1–9. Following the oral administration of the compounds in each group, blood was collected from the jugular vein at the specified time points, with three mice at each time point and two to three times for each mouse. 1–3 numbered mice had blood collection time points of 0.25, 1.5, and 7 h after the administration of the compounds, 4–6 numbered mice had blood collection time points of 0.5, 2, and 24 h after the administration of the compounds, and 7–9 numbered mice had blood collection time points of 1 and 5 h after the administration of the compounds. All blood samples were collected without anesthesia, and blood was collected in heparinized EP tubes. Plasma was obtained by centrifuging the blood at 10,000 rpm for 2 min at 4°C.

[3] = target: T1, norepinephrine transporter (Homo sapiens, UniProt P23975); test: Norepinephrine transporter (NET) radioligand binding (3H-Nisoxetine); settings: 3H-Nisoxetine competition, mean, n = 2; read-out: Ki, norepinephrine transporter
T1 construct: purchased PerkinElmer, Inc RBHNETM400UA
Method: The experiments were carried out in the Pharmaron laboratory, and the methods were referenced from previous studies with modifications ([Bylund and Toews, 1993]; [Galli et al., 1995]). Competitive binding of the compound and ^3H-Nisoxetine to NETs was assessed using a radioligand binding method. The ability of the compound to competitively bind to NET (Ki) was determined by detecting the signal value of the radioligand bound to the transporter using a Microbeta instrument (2450, Perkin Elmer, Massachusetts, United States).

NMDA receptor = settings: read-out: Ki, NMDA receptor; 3H-MK801 competition, rat brain membranes, mean, n = 4
Method: Membrane preparation was performed as previously described ([Werling et al., 2007]). Briefly, the brains of male Sprague-Dawley rats were dissected for tissue collection. The tissue was then homogenized in ice-cold extraction solution and centrifuged at 40,000 × g for 10 min (minute). The supernatant was discarded, the precipitate was resuspended in extraction solution, and the above steps were repeated two times. Finally, the precipitate was resuspended in a 10-fold volume of resuspension solution and stored at −80°C. Protein concentration was determined using a PierceTM BCA Protein Assay Kit. The competitive binding of the compound and ^3H-MK801 to the NMDA receptor was evaluated utilizing the filtration binding method. This method involves washing unbound radioligands and subsequently quantifying the signal values of the radioligands bound to the NMDA receptor using a Microbeta instrument (catalog number: 2450, Perkin Elmer, Massachusetts, United States).

T1 sequence (P23975 whole entry): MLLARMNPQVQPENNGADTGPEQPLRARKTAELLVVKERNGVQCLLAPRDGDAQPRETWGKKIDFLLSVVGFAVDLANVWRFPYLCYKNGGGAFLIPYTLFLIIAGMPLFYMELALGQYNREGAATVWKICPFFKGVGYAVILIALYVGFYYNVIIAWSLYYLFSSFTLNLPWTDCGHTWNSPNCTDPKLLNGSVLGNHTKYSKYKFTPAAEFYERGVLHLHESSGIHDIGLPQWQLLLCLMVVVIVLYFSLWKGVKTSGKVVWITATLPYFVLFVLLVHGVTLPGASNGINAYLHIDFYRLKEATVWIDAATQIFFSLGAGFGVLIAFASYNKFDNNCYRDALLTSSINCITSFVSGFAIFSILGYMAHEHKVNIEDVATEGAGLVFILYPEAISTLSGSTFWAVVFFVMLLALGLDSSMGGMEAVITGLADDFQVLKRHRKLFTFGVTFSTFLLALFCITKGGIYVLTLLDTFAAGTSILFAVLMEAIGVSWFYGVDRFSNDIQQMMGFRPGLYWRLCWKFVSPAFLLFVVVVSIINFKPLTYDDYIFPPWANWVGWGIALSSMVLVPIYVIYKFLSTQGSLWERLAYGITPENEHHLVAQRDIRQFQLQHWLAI

deuterated dextromethorphan [deDM]
AUC0-last (♀) ([1]; female beagle dog): 153 ng·h/mL
Cmax (♀) ([1]; female beagle dog): 60 ng/mL
AUC0-last (♂) ([1]; male beagle dog): 383 ng·h/mL
Cmax (♂) ([1]; male beagle dog): 157 ng/mL
body temperature compared with the model (vehicle) group (Sprague-Dawley rats; reserpine 4 mg/kg i.p. rats, BUP 40 mg/kg, deDM 5 and 10 mg/kg, deDM + BUP 5 + 40 and 10 + 40 mg/kg): increased the body temperature of model animals in a dose-dependent manner
body temperature, high dose compared with the model (vehicle) group (Sprague-Dawley rats; reserpine rats, 10 mg/kg): reaching a statistically significant difference
AUC0-last [2]: 387 ± 163 ng·h/mL
Cmax [2]: 269 ± 83 ng/mL
Ki [3]: 17.1 µM
Ki (NMDA receptor): 1900 nM
